From patent US5160727A, “Tumor cell sensitization method using quinazolinedione derivatives” (priority 1990, dated 1992)
Structures can show the parent of a compound that is named as a salt. Where two headings read alike, the source gives them in different places.

Tests used:
Format in all cases: cell-based, murine
[1] = test system: P388R cells; experiment: Potentiation of adriamycin activity and cell growth in P388 resistant cells (Table II); details: for activity at 5 µM / activity at 10 µM: Mus musculus; for Degree of ADR Potentiation in P388R: footnote a (drawing 3)
Method: The P388 murine leukemia cells used in obtaining the data set forth in Table I and Table II were obtained from Southern Research Institute (Birmingham, Ala.) and were cultured from ascites fluids of tumor-bearing DMA/2 mice and maintained in Fischer's medium supplemented with 10% horse serum, 10 μM 2-mercaptoethanol, and gentamycin (50 μg/mL). Cells were counted with a Model ZF Coulter Counter (Coulter Electronics, Inc., Hialeah, Fla.). Viability was determined by trypan blue exclusion. […] Cancer Inst.

[2] = test system: P388S cells; experiment: 72-hour growth inhibition of drug-sensitive P388S cells by anticancer drug alone or with modifier (Table I); details: for IC50: Mus musculus, P388/S, 72 h, P388S, mean of two experiments in triplicate, read-out: ID50 (concentration that inhibits 72-hour cell growth by 50%)
Method: (§1) In performing the studies P388 that were sensitive to adriamycin (P388S) and P388 cells that were resistant to adriamycin (P388/ADR) were exposed to various concentrations of anticancer drug either alone or together with 5 μg/mL of modifier or sensitizer for 72 hours.
(§2) The P388 murine leukemia cells used in obtaining the data set forth in Table I and Table II were obtained from Southern Research Institute (Birmingham, Ala.) and were cultured from ascites fluids of tumor-bearing DMA/2 mice and maintained in Fischer's medium supplemented with 10% horse serum, 10 μM 2-mercaptoethanol, and gentamycin (50 μg/mL). Cells were counted with a Model ZF Coulter Counter (Coulter Electronics, Inc., Hialeah, Fla.). Viability was determined by trypan blue exclusion. The general methodology is described by W. D. Klohs, et al, Cancer Research 46, 4352-4356 (September 1986) and W. D. Klohs, et al, J. Nat'l. Cancer Inst. 75, 353-359 (1985).

[3] = test system: P388/ADR cells; experiment: 72-hour growth inhibition of adriamycin-resistant P388/ADR cells by anticancer drug alone or with modifier (Table I); details: Mus musculus, mean of two experiments in triplicate, read-out: ID50 (concentration that inhibits 72-hour cell growth by 50%)
Method: as §1, §2

[4] = P388, test compound at 5 μM, read-out: % of Control Cell Growth
[5] = P388, test compound at 10 μM, read-out: % of Control Cell Growth
[6] = test compound at 5 μM with adriamycin
[7] = test compound at 10 μM with adriamycin
[8] = anticancer drug alone, modifier none
[9] = anticancer drug with modifier CsA (cyclosporin A) 5 μg/mL
[10] = anticancer drug with modifier TIOP (tioperidone) 5 μg/mL
[11] = anticancer drug with modifier VER (verapamil) 5 μg/mL
[12] = P388, read-out: % of Control Cell Growth

Question: `CCCSc1ccccc1N1CCN(CCCCn2c(=O)c3ccccc3n(C)c2=O)CC1` [Example 12, 1-methyl-3-[4-[4-[2-(propylthio)phenyl]-1-piperazinyl]butyl] -2,4-(1H,3H)quinazolinedione] was tested. Which activity at 5 µM [1, 4] did it give?
Answer: 100%

Question: What about the activity at 10 µM [1, 5] of the same molecule?
Answer: 87%

Question: What about the “Degree of ADR Potentiation in P388R” value [1, 6] of the same molecule?
Answer: 17.9

Question: And the “Degree of ADR Potentiation in P388R” value [1, 7]?
Answer: 39.1

Question: Which activity at 5 µM [1, 4] does the source give for `CCCSc1ccccc1N1CCN(CCCCn2c(=O)[nH]c3cc(Cl)ccc3c2=O)CC1.Cl` [Example 9, 7-chloro-3-[4-[4-[2-(propylthio)phenyl]-1-piperazinyl]butyl]2,4(1H,3H)-quinazolinedione monohydrochloride] here?
Answer: 100%

Question: What about the activity at 10 µM [1, 5] of the same molecule?
Answer: 85%

Question: What about the “Degree of ADR Potentiation in P388R” value [1, 6] of the same molecule?
Answer: 22.2

Question: What about the “Degree of ADR Potentiation in P388R” value [1, 7] of the same molecule?
Answer: 35.4

Question: `CCCSc1ccccc1N1CCN(CCCCCn2c(=O)[nH]c3cc(OC)c(OC)cc3c2=O)CC1` [Example 14, 6,7-dimethoxy-3-[5-[4-[2-(propylthio)phenyl]-1-piperazinyl]pentyl]-2,4(1H,3H)-quinazolinedione] was tested. Which activity at 5 µM [1, 4] did it give?
Answer: 53%

Question: And the activity at 10 µM [1, 5]?
Answer: 1.2%

Question: What about the “Degree of ADR Potentiation in P388R” value [1, 6] of the same molecule?
Answer: 65.0

Question: For `COc1cccc2c1C(=O)c1c(O)c3c(c(O)c1C2=O)C[C@@](O)(C(C)=O)C[C@@H]3O[C@H]1C[C@H](N)[C@H](O)[C@H](C)O1` [Daunomycin], which IC50 [2, 8] is on record?
Answer: 98 nM

Question: And the IC50 [2, 9]?
Answer: 95 nM

Question: What about the IC50 [2, 10] of the same molecule?
Answer: 96 nM

Question: What about the IC50 [2, 11] of the same molecule?
Answer: 93 nM

Question: What about the IC50 [3, 8] of the same molecule?
Answer: 2770 nM

Question: What about the IC50 [3, 9] of the same molecule?
Answer: 108 nM

Question: And the IC50 [3, 10]?
Answer: 103 nM

Question: What about the IC50 [3, 11] of the same molecule?
Answer: 329 nM

Question: Which results are given for `CCCSc1ccccc1N1CCN(CCCCn2c(=O)[nH]c3ccc(C)cc3c2=O)CC1.Cl` [Example 10, 6-methyl-3-[4-[4[2(propylthio)phenyl]-1-piperazinyl]butyl]-2,4(1H,3H)-quinazolinedione monohydrochloride]?
Answer: activity at 5 µM [1, 4]: 92%; activity at 10 µM [1, 5]: 85%; Degree of ADR Potentiation in P388R [1, 6]: 21.0; Degree of ADR Potentiation in P388R [1, 7]: 48.4

Question: For `CCCSc1ccccc1N1CCN(CCCn2c(=O)[nH]c3ccccc3c2=O)CC1.Cl` [Example 2, 3-[3-[4-[2-(propylthio)phenyl]-1-piperazinyl]propyl]-2,4-(1H,3H)-quinazolinedione monohydrochloride], which activity at 5 µM [1, 4] is on record?
Answer: 89%

Question: And the activity at 10 µM [1, 5]?
Answer: 87%

Question: And the “Degree of ADR Potentiation in P388R” value [1, 6]?
Answer: 13.1

Question: And the “Degree of ADR Potentiation in P388R” value [1, 7]?
Answer: 22.0

Question: For `Cl.O=c1[nH]c2ccccc2c(=O)n1CCCCN1CCN(c2cccc(Cl)c2Cl)CC1` [Example 4, 3-[4-[4-(2,3-dichlorophenyl)-1-piperazinyl]butyl]-2,4-(1H,3H)-quinazolinedione monohydrochloride], which activity at 5 µM [1, 12] is on record?
Answer: 76%

Question: What about the activity at 10 µM [1, 12] of the same molecule?
Answer: 76%

Question: And the “Degree of ADR Potentiation in P388R” value [1, 6]?
Answer: 21.8

Question: And the “Degree of ADR Potentiation in P388R” value [1, 7]?
Answer: 31.7

Question: `COc1cc(NCc2ccc3nc(N)nc(N)c3c2C)cc(OC)c1OC` [Trimetrexate] was tested. Which IC50 [2, 8] did it give?
Answer: 12 nM

Question: And the IC50 [2, 9]?
Answer: 11 nM

Question: And the IC50 [2, 10]?
Answer: 12 nM

Question: What about the IC50 [2, 11] of the same molecule?
Answer: 12 nM

Question: What about the IC50 [3, 8] of the same molecule?
Answer: 270 nM

Question: And the IC50 [3, 9]?
Answer: 12 nM

Question: And the IC50 [3, 10]?
Answer: 14 nM

Question: And the IC50 [3, 11]?
Answer: 29 nM

Question: What does the source list for `CCCSc1ccccc1N1CCN(CCCCn2c(=O)c3cccc(OC)c3n(C)c2=O)CC1.Cl` [Example 18, 8-methoxy-1-methyl-3-[4-[4-[2-(propylthio)phenyl]-1-piperazinyl]butyl]-2,4-(1H,3H)quinazolinedione monohydrochloride]?
Answer: activity at 5 µM [1, 4]: 100%; activity at 10 µM [1, 5]: 87%; Degree of ADR Potentiation in P388R [1, 6]: 21.1; Degree of ADR Potentiation in P388R [1, 7]: 24.6

Question: What does the source list for `CCCSc1ccccc1N1CCN(CCCCCn2c(=O)c3cc(OC)c(OC)cc3n(C)c2=O)CC1` [Example 16, 6,7-dimethoxy-1-methyl-3-[5-[4-[2-(propylthio)phenyl]-1-piperazinyl]pentyl]-2,4(1H,3H)-quinazolinedione]?
Answer: activity at 5 µM [1, 4]: 33%; activity at 10 µM [1, 5]: 4.2%; Degree of ADR Potentiation in P388R [1, 6]: 44.5

Question: `CCCSc1ccccc1N1CCN(CCCCn2c(=O)c3cc(OC)c(OC)cc3n(C)c2=O)CC1` [Example 15, 6,7-dimethoxy-1-methyl-3-[4-[4-[2-(propylthio)phenyl]-1-piperazinyl]butyl]-2,4(1H,3H)-quinazolinedione] was tested. Which activity at 5 µM [1, 4] did it give?
Answer: 46%

Question: What about the activity at 10 µM [1, 5] of the same molecule?
Answer: 2.6%

Question: And the “Degree of ADR Potentiation in P388R” value [1, 6]?
Answer: 21.2

Question: `CCCSc1ccccc1N1CCN(CCCCCn2c(=O)[nH]c3ccccc3c2=O)CC1` [Example 19, 3-[5-[4-[2-(propylthio)phenyl]-1-piperazinyl]pentyl]-2,4-(1H,3H)-quinazolinedione] was tested. Which activity at 5 µM [1, 4] did it give?
Answer: 100%

Question: What about the activity at 10 µM [1, 5] of the same molecule?
Answer: 68%

Question: What about the “Degree of ADR Potentiation in P388R” value [1, 6] of the same molecule?
Answer: 36.7

Question: What about the “Degree of ADR Potentiation in P388R” value [1, 7] of the same molecule?
Answer: 66.9

Question: For `CSc1ccccc1N1CCN(CCCCn2c(=O)[nH]c3ccccc3c2=O)CC1` [Example 7, 3-[4-[4-[2-methylthio)phenyl]-1-piperazinyl]butyl]-2,4(1H,3H)quinazolinedione monohydrochloride], which activity at 5 µM [1, 4] is on record?
Answer: 95%

Question: And the activity at 10 µM [1, 5]?
Answer: 72%

Question: And the “Degree of ADR Potentiation in P388R” value [1, 6]?
Answer: 25.2

Question: And the “Degree of ADR Potentiation in P388R” value [1, 7]?
Answer: 48.4

Question: With `CCCSc1ccccc1N1CCN(CCCCCCn2c(=O)[nH]c3ccccc3c2=O)CC1` [Example 11, 3-[6-[4-[2-(propylthio)phenyl]-1-piperazinyl]hexyl]-2,4-(1H,3H)quinazolinedione monohydrochloride, 1/3 hydrate] as the molecule, how does the activity at 5 µM [1, 4] read?
Answer: 99%

Question: And the activity at 10 µM [1, 5]?
Answer: 66%

Question: And the “Degree of ADR Potentiation in P388R” value [1, 6]?
Answer: 73.8

Question: And the “Degree of ADR Potentiation in P388R” value [1, 7]?
Answer: 52.2

Question: Which “effect on adriamycin activity in drug-sensitive parent P388S cells” value ([2]; modifier with adriamycin) does the source give for cyclosporin A here?
Answer: little effect

Question: Which results are given for `CCCSc1ccccc1N1CCN(CCCCn2c(=O)[nH]c3cc(OC)c(OC)cc3c2=O)CC1` [Example 13, 6,7-dimethoxy-3-[4-[4-[2-(propylthio)phenyl]-1-piperazinyl]butyl]-2,4-(1H,3H)-quinazolinedione]?
Answer: activity at 5 µM [1, 4]: 100%; activity at 10 µM [1, 5]: 10.4%; Degree of ADR Potentiation in P388R [1, 6]: 93.0; Degree of ADR Potentiation in P388R [1, 7]: 52.2

Question: Which activity at 5 µM [1, 4] does the source give for `CCCSc1ccccc1N1CCN(CCCCn2c(=O)[nH]c3c(OC)cccc3c2=O)CC1` [Example 17, 8-methoxy-3-[4-[4-[2-(propylthio)phenyl]-1-piperazinyl]butyl]-2,4-(1H,3H)quinazolinedione] here?
Answer: 83%

Question: What about the activity at 10 µM [1, 5] of the same molecule?
Answer: 39%

Question: What about the “Degree of ADR Potentiation in P388R” value [1, 6] of the same molecule?
Answer: 3.4

Question: What about the “Degree of ADR Potentiation in P388R” value [1, 7] of the same molecule?
Answer: 67.2

Question: With `CC(C)Sc1ccccc1N1CCN(CCCCn2c(=O)[nH]c3ccccc3c2=O)CC1.Cl` [Example 6, 3-[4-[4-[2-[(1-methylethyl)thio]phenyl]-1-piperazinyl]butyl]-2,4-(1H,3H)-quinazolinedione monohydrochloride] as the molecule, how does the activity at 5 µM [1, 4] read?
Answer: 91%

Question: What about the activity at 10 µM [1, 5] of the same molecule?
Answer: 59%

Question: What about the “Degree of ADR Potentiation in P388R” value [1, 6] of the same molecule?
Answer: 24.2

Question: What about the “Degree of ADR Potentiation in P388R” value [1, 7] of the same molecule?
Answer: 52.2

Question: What does the source list for `CCSc1ccccc1N1CCN(CCCCn2c(=O)[nH]c3ccccc3c2=O)CC1.Cl` [Example 5, 3-[4-[4-[2-(ethylthio)phenyl)-1-piperazinyl]butyl]-2,4-(1H,3H)-quinazolinedione monohydrochloride]?
Answer: activity at 5 µM [1, 4]: 79%; activity at 10 µM [1, 5]: 78%; Degree of ADR Potentiation in P388R [1, 6]: 19.6; Degree of ADR Potentiation in P388R [1, 7]: 46.6

Question: What does the source list for `CCCCSc1ccccc1N1CCN(CCCCn2c(=O)[nH]c3ccccc3c2=O)CC1.Cl` [Example 8, 3-[4-[4-[2-(butylthio)phenyl]-1-piperazinyl]butyl]-2,4-(1H,3H)-quinazolinedione monohydrochloride]?
Answer: activity at 5 µM [1, 4]: 88%; activity at 10 µM [1, 5]: 86%; Degree of ADR Potentiation in P388R [1, 6]: 25.0; Degree of ADR Potentiation in P388R [1, 7]: 48.4

Question: Which activity at 5 µM [1, 4] does the source give for `CCCSc1ccccc1N1CCN(CCCCn2c(=O)[nH]c3ccc(Cl)cc3c2=O)CC1.Cl` [Example 3, 6-chloro-3-[4-[4-[2-(propylthio)phenyl]-1-piperazinyl]butyl]-2,4-(1H,3H)quinazolinedione monohydrochloride] here?
Answer: 100%

Question: And the activity at 10 µM [1, 5]?
Answer: 88%

Question: And the “Degree of ADR Potentiation in P388R” value [1, 6]?
Answer: 19.6

Question: And the “Degree of ADR Potentiation in P388R” value [1, 7]?
Answer: 44.7
